According to patent US8354425B2, “Azabicyclic carboxamide derivatives, preparation thereof and therapeutic use thereof” (Sanofi, priority 2008, dated 2013):

Legend:
local TRPV1 receptors = molecular target: T1, local TRPV1 receptors (Mus musculus, UniProt Q704Y3); test: Pain induced by intraplantar administration of capsaicin to mice; type: in vivo; conditions: 10 mg/kg orally 120 minutes before intraplantar capsaicin, n=10
T1 construct: from tissue; host or cells: living mouse, hind leg (intraplantar capsaicin injection)
T1 sequence (Q704Y3 whole entry): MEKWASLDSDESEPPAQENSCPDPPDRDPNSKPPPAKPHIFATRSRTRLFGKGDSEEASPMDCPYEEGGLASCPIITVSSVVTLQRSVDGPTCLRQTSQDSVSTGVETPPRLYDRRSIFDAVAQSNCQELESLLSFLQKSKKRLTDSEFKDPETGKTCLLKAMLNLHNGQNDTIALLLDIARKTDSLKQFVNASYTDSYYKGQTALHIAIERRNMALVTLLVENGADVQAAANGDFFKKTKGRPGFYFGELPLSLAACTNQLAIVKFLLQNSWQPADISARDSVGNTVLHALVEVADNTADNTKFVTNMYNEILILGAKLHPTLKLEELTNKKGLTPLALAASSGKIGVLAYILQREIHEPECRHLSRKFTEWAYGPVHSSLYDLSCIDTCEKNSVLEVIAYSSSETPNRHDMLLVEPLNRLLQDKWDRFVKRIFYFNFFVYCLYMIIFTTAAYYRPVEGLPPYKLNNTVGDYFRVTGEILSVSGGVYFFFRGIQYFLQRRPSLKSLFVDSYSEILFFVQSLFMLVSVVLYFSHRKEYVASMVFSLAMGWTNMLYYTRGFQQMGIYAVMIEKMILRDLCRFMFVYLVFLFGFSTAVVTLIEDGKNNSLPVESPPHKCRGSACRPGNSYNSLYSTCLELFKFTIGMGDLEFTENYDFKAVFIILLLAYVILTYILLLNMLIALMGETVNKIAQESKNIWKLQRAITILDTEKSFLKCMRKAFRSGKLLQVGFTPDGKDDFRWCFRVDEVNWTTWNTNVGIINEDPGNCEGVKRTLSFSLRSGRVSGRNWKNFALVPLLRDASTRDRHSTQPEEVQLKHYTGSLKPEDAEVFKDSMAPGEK
Procedure: Pain induced by intraplantar administration of capsaicin to mice.
The intraplantar injection of capsaicin to mice rapidly produces short-lived nociceptive behaviour, which is reflected by licking, biting and flexing of the administered leg. These nociceptive responses are probably associated with the activation of the local TRPV1 receptors by the capsaicin.
(E)-Capsaicin is initially diluted to 3 mg/ml in DMSO, and then diluted again for its final use to 1.5 μg/20 μl in physiological saline. The administration of solvent has no effect on the behaviour of the mouse. The capsaicin is injected into the hind legs of the animal, on the upper face.
The test compounds are administered orally 120 minutes before the injection of capsaicin. Two hours after administration of the compounds, the mice are placed in a glass beaker. The nociceptive behaviour of the animals is then assessed immediately by the experimenter, and the duration of the capsaicin-induced behavioural manifestations is timed over a period of 2 minutes (licking and biting, total or partial flexure of the injected leg).
For each compound, an inhibition corresponding to the mean of the capsaicin-induced nociceptive responses, in response to a dose of test product (expressed in mg/kg) administered orally to a sample of a given number (n) of mice, is determined. […]

TRPV1 receptor = molecular target: T2, TRPV1 receptor (Rattus norvegicus, UniProt O35433); test: Test of inhibition of the current induced with capsaicin on rat DRGs (whole-cell patch-clamp); type: cell-based; conditions: inhibition of control capsaicin response, newborn rat DRG neurones
T2 construct: DRG neurones naturally express the TRPV1 receptor; endogenous in cells; host or cells: primary culture of newborn rat dorsal root ganglion neurones
T2 sequence (O35433 whole entry): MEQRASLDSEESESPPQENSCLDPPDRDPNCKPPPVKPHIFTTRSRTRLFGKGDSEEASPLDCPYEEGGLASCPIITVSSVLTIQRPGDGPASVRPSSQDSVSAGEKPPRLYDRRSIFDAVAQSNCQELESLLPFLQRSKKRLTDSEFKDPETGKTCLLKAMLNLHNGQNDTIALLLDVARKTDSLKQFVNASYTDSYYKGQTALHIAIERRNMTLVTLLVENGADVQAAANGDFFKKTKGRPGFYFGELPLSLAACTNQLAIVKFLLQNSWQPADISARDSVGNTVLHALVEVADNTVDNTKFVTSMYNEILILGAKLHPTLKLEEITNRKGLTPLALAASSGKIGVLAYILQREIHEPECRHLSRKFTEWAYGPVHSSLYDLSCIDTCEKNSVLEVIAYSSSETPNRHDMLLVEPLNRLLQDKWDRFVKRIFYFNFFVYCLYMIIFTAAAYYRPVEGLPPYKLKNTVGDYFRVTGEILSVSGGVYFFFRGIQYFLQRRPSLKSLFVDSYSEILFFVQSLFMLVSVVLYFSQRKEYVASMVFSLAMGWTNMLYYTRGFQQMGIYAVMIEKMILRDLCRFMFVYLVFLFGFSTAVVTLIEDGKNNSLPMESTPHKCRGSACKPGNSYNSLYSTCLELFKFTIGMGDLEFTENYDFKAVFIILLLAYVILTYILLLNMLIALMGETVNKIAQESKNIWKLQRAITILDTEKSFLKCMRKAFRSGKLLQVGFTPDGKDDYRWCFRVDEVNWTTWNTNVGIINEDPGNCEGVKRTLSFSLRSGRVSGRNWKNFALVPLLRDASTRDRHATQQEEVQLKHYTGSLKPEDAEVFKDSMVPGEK
Procedure: Test of inhibition of the current induced with capsaicin on rat DRGs • Primary culture of rat dorsal root ganglion (DRG) cells:
DRG neurones naturally express the TRPV1 receptor.
The primary cultures of newborn rat DRGs are prepared using 1-day-old rats. Briefly, after dissection, the ganglions are trypsinized and the cells dissociated by mechanical trituration. The cells are resuspended in an Eagle basal culture medium containing 10% foetal calf serum, 25 mM KCl, 2 mM glutamine, 100 μg/ml gentamicin and 50 ng/ml of NGF, and then deposited on glass slides coated with laminin (0.25×10^6 cells per slide), which are then placed in Corning 12-well dishes. The cells are incubated at 37° C. in a humidified atmosphere containing 5% CO2 and 95% air. […]
The measuring chambers (volume 800 μl) containing the cell preparation are placed on the platform of an inverted microscope (Olympus IMT2) equipped with Hoffman optics (Modulation Contrast, New York) and observed at a magnification of 400×. […] The overall currents (membrane potential set at −60 mV) are recorded with an Axopatch 1D amplifier (Axon Instruments, Foster City, Calif.), connected to a PC running the Pclamp8 software (Axon Instrument). The current plots are recorded on paper and simultaneously digitized (sampling frequency 15 to 25 Hz) and acquired on the hard drive of the PC. […]

Row | Structure (SMILES) | % inhibition of the capsaicin-induced nociceptive responses (local TRPV1 receptors) | inhibition at 0.001 µM (TRPV1 receptor; compound at 1 nM) | melting point | inhibition at 0.1 µM (TRPV1 receptor; compound at 100 nM)
1 | O=C(Nc1cnc2[nH]ccc2c1)c1cc2cc(F)ccc2n1Cc1cccc(F)c1 [Compound 2, N-[1H-Pyrrolo[2,3-b]pyrid-5-yl]-5-fluoro-1-(3-fluorobenzyl)-1H-indole-2-carboxamide] | 61% (±6%) | 82% |  | 
2 | O=C(Nc1cc2cc[nH]c2cn1)c1cc2cc(F)ccc2n1Cc1cccc(F)c1 [Compound 8, N-(1H-Pyrrolo[2,3-c]pyrid-5-yl)-5-fluoro-1-[(3-fluorophenyl]methyl]-1H-indole-2-carboxamide] |  |  | 203 to 204 °C | 67.5%
